Data from patent US9902713B2, “Neuroprotective compounds and use thereof” (BOARD OF REGENTS OF THE UNIVERSITY OF TEXAS SYSTEM, priority 2013, dated 2018).

Legend:
[1] = tested on: motor neurons in the spinal cord; conditions: previously reported; cited from earlier work
[2] = tested on: newborn hippocampal neurons; conditions: previously reported; cited from earlier work
[3] = tested on: newborn hippocampal neurons; assay: In vivo neuroprotection assay: BrdU+ newborn hippocampal neurons; parameters: species or system mice; conditions: for # cell (E6)/mm^3 (number of BrdU+ cells): in vivo neuroprotection assay, Table 2
Method: Results. Our most robust assay involves monitoring neuroprotection of newborn hippocampal neurons in mice because this assay gives a simultaneous readout of efficacy, acute toxicity and cell permeability. For this reason, all analogs of P7C3 were evaluated initially by infusing them directly into the left lateral ventricle of environmentally-deprived^ix live mice using a subcutaneously implanted osmotic minipump. Compounds were delivered intracerebroventricularly (ICV) over a 7 day period at a concentration of 10 μM (12 μL/d).^x Coincident with ICV administration of drug, mice were dosed daily with the thymidine analog bromodeoxyuridine (BrdU, IP, 50 mg/kg) to mark newly born hippocampal neural precursor cells. At the end of the 1 week dosing, animals were sacrificed and transcardially perfused. Brain slices were stained with antibodies to BrdU, and the number of surviving neural precursor cells was quantified by counting the number of BrdU+ cells in the hippocampal dentate gyrus. To avoid complications arising from the surgical implantation of the pump, we quantified neurogenesis in the hemisphere opposite to compound infusion. Finally, to obtain consistent data across many animals, the number of BrdU+ cells was normalized to the volume of the dentate gyrus.
In Vivo Neuroprotection Assay. Test compounds were evaluated as described previously.^2 Compounds were infused intracerebroventricularly (i.c.v.) into the left lateral ventricle of four adult (12 week old) wild-type C57BL/J6 mice by means of surgically implanted Alzet osmotic minipumps that delivered solution into animals at a constant rate of 0.5 μl/hour for 7 days. Alternatively, compounds were administered intraperitoneally twice daily. Bromodeoxyuridine (BrdU) was injected intraperitoneally at 50 mg/kg/day for six days during pump infusion. Twenty-four hours after the final BrdU administration, mice were sacrificed by transcardial perfusion with 4% paraformaldehyde at pH 7.4, and their brains were processed for immunohistochemical detection of incorporated BrdU in the SGZ. Dissected brains were immersed in 4% paraformaldehyde overnight at 4° C., then cryoprotected in sucrose before being sectioned into 40 μm thick free-floating sections. Unmasking of BrdU antigen was achieved through incubating tissue sections for two hours in 50% formamide/2×SSC at 65° C., followed by a five minute wash in 2×SSC and subsequent incubation for thirty minutes in 2M HCl at 37° C. Sections were processed for immunohistochemical staining with mouse monoclonal anti-BrdU (1:100). The number of BrdU+ cells in the entire dentate gyrus SGZ in the contralateral hemisphere (opposite side of surgically implanted pump) was quantified by counting BrdU+ cells within the SGZ and dentate gyrus in every fifth section throughout the entire hippocampus and then normalizing for dentate gyrus volume.

[4] = tested on: dopaminergic neurons within the substantia nigra; conditions: previously reported; cited from earlier work
[5] = tested on: 70 kD polypeptide; assay: Photo-crosslinking of 70 kD polypeptide and competition; assay type: binding; conditions: FIG. 13
Text: Note that non-specific, crosslinked bands are not competed by the “A20” variant, but that crosslinking of the 70 kD band was competed.

SMILES | # cell (E6)/mm^3 (number of BrdU+ cells) [3] | increase in the number of BrdU+ cells compared to vehicle ([3]; ICV, 1 week, FIG. 1) | further results
OC(CNc1ccccc1)Cn1c2ccc(Br)cc2c2cc(Br)ccc21 (stereo not shown) [P7C3, 1-(3,6-dibromo-9H-carbazol-9-yl)-3-(phenylamino)propan-2-ol] | 30 (E6)/mm^3 | – | motor neuron cell death in the spinal cord [1]: minimize motor neuron cell death; activity in the in vivo hippocampal neuroprotection assay (previous studies) [2]: approximately doubled; protection of substantia nigra neurons from MPTP (earlier report) [4]: protect neurons in the substantia nigra
O=C(CCCC[C@@H]1SC[C@@H]2NC(=O)N[C@@H]21)NCCOCCOCCOCCn1cc(COc2ccc(OCC(O)Cn3c4ccc(Br)cc4c4cc(Br)ccc43)cc2)nn1 (stereo partly shown) [P7C3-S318] | 20.8 (E6)/mm^3 | – | –
C#CCOc1ccc(C(=O)c2ccc(NCC(O)Cn3c4ccc(Br)cc4c4cc(Br)ccc43)cc2)cc1 (stereo not shown) [P7C3-S325] | 30.6 (E6)/mm^3 | – | –
C#CCOc1ccc(C(=O)c2cccc(NCC(F)Cn3c4ccc(Br)cc4c4cc(Br)ccc43)c2)cc1 (stereo not shown) [P7C3-S326] | 25 (E6)/mm^3 | – | photo-crosslinking products [5]: photo-crosslinking of 70 kD polypeptide
OC(CNc1ccccn1)Cn1c2ccc(Br)cc2c2cc(Br)ccc21 (stereo not shown) [compound 1, 1-(3,6-dibromo-9H-carbazol-9-yl)-3-(pyridin-2-ylamino)propan-2-ol] | – | – | activity in the in vivo hippocampal neuroprotection assay (previous studies) [2]: maintaining activity
[N-]=[N+]=NCC(F)Cn1c2ccc(Br)cc2c2cc(Br)ccc21 (stereo not shown) [compound 9, 9-(3-azido-2-fluoropropyl)-3,6-dibromo-9H-carbazole] | – | – | number of surviving newborn hippocampal neurons ([3]; ICV, 1 week, FIG. 1): inactive
NCC(F)Cn1c2ccc(Br)cc2c2cc(Br)ccc21 (stereo not shown) [compound 10, 3-(3,6-dibromo-9H-carbazol-9-yl)-2-fluoropropan-1-amine] | – | 30% | –
NCC(O)Cn1c2ccc(Br)cc2c2cc(Br)ccc21 (stereo not shown) [compound 14, 1-amino-3-(3,6-dibromo-9H-carbazol-9-yl)propan-2-ol] | – | 30% | –
COc1cccc(NCC(O)Cn2c3ccc(Br)cc3c3cc(Br)ccc32)n1 (stereo not shown) [compound 15, 1-(3,6-dibromo-9H-carbazol-9-yl)-3-((6-methoxypyridin-2-yl)amino)propan-2-ol] | – | 30% | –
